The results in this text go back to patent US9187472B2 (AbbVie Inc., priority 2012, dated 2015).

One test has as its system PC3 cells. Description: NAMPT Cell Proliferation Assay. The conditions noted are these: 5 days incubation, cell viability by Cell Titer Glo. It counts as cell-based. The procedure, abridged:
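Proliferation of PC3 cells treated 5 days with a 10-fold compound series (top 10 μM) was quantified by Cell Titer Glo luminescence; IC50s were fitted from percent inhibition.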
On the technique in general: ATP-based viability assays read luminescence as a measure of living cells.
As a reminder, the IC50 is the midpoint of a concentration-inhibition curve. Take `O=C(NCc1ccn2ccnc2c1)c1ccc(C2CCN(C(=O)/C=C/c3ccccn3)CC2)cc1` [Example 991, -(imidazo[1,2-a]pyridin-7-ylmethyl)-4-{1-[(2E)-3-(pyridin-2-yl)prop-2-enoyl]piperidin-4-yl}benzamide]: the midpoint of inhibition, the IC50, lay at 66.9 nM.

The same test, now with this note: Homo sapiens, PC-3, 120 h, 5 days incubation, cell viability by Cell Titer Glo.
In turn, `CC(Oc1ccccc1)C(=O)N1CCC(c2ccc(C(=O)NCc3ccn4ccnc4c3)cc2)CC1` (stereo not drawn) [Example 930, N-(imidazo[1,2-a]pyridin-7-ylmethyl)-4-[1-(2-phenoxypropanoyl)piperidin-4-yl]benzamide] came in with a half-maximal inhibitory concentration (IC50) of 2.09 nM.

In the case of `Cc1cccn2cc(C(=O)N3CCC(c4ccc(NC(=O)NCc5ccn6ccnc6c5)cc4)CC3)nc12` [Example 1042, 1-(imidazo[1,2-a]pyridin-7-ylmethyl)-3-(4-{1-[(8-methylimidazo[1,2-a]pyridin-2-yl)carbonyl]piperidin-4-yl}phenyl)urea], the half-maximal inhibitory concentration (IC50) is 3.59 nM.

As to `O=C(NCc1ccn2ccnc2c1)c1ccc(C2CCN(C(=O)c3cc(C4CC4)no3)CC2)cc1` [Example 1062, 4-{1-[(3-cyclopropyl-1,2-oxazol-5-yl)carbonyl]piperidin-4-yl}-N-(imidazo[1,2-a]pyridin-7-ylmethyl)benzamide], half-maximal inhibition (IC50) was put at 17 nM.

`CC(C)(C)OC(=O)N1CCC(c2ccc(C(=O)NCc3ccc4nccn4n3)cc2)CC1` [Example 855, tert-butyl 4-{4-[(imidazo[1,2-b]pyridazin-6-ylmethyl)carbamoyl]phenyl}piperidine-1-carboxylate] displayed an IC50 of 111 nM.

For the compound `C/C=C(\C)C(=O)N1CCC(c2ccc(NC(=O)NCc3ccn4ccnc4c3)cc2)CC1` [Example 955, 1-(imidazo[1,2-a]pyridin-7-ylmethyl)-3-(4-{1-[(2E)-2-methylbut-2-enoyl]piperidin-4-yl}phenyl)urea], the midpoint of inhibition, the IC50, lay at 2.56 nM.

The compound `O=C(NCc1ccc2ncnn2c1)c1ccc(C2CCN(C(=O)c3ccc(F)cc3F)CC2)s1` [Example 834, 5-[1-(2,4-difluorobenzoyl)piperidin-4-yl]-N-([1,2,4]triazolo[1,5-a]pyridin-6-ylmethyl)thiophene-2-carboxamide] yielded an IC50 of 12.7 nM.

The compound `CN(C)C(=O)N1CCC(c2ccc(C(=O)NCc3ccn4ccnc4c3)cc2)CC1` [Example 1077, 4-{4-[(imidazo[1,2-a]pyridin-7-ylmethyl)carbamoyl]phenyl}-N,N-dimethylpiperidine-1-carboxamide] registered an IC50 of 69.1 nM.

For `CC(C)Cc1cc(-c2ccc(C(=O)NCc3ccn4ccnc4c3)s2)n(Cc2ccccc2)n1` [Example 907, 5-[1-benzyl-3-(2-methylpropyl)-1H-pyrazol-5-yl]-N-(imidazo[1,2-a]pyridin-7-ylmethyl)thiophene-2-carboxamide], the IC50 was 7.09 nM.

As to `CC(C)C(=O)N1CCC(c2ccc(C(=O)NCc3cn4ccnc4cn3)s2)CC1` [Example 837, N-(imidazo[1,2-a]pyrazin-6-ylmethyl)-5-[1-(2-methylpropanoyl)piperidin-4-yl]thiophene-2-carboxamide], 2.77 nM corresponded to half-maximal inhibition (IC50).

Compound `COc1cccc(C(=O)Nc2ccc(C(=O)NCc3ccn4ccnc4c3)cc2)c1` [Example 875, N-{4-[(imidazo[1,2-a]pyridin-7-ylmethyl)carbamoyl]phenyl}-3-methoxybenzamide] yielded an IC50 of 1140 nM.

In the case of `Cc1ccc(F)c(C(=O)N2CCC(c3ccc(C(=O)NCc4ccn5ccnc5c4)cc3)CC2)n1` [Example 963, 4-{1-[(3-fluoro-6-methylpyridin-2-yl)carbonyl]piperidin-4-yl}-N-(imidazo[1,2-a]pyridin-7-ylmethyl)benzamide], half-maximal inhibition (IC50) required 19.5 nM.

For `COc1cccc(CC(=O)N2CCC(c3ccc(NC(=O)NCc4ccn5ccnc5c4)cc3)CC2)c1` [Example 952, 1-(imidazo[1,2-a]pyridin-7-ylmethyl)-3-(4-{1-[(3-methoxyphenyl)acetyl]piperidin-4-yl}phenyl)urea], the IC50 worked out at 10.3 nM.

Turning to `N#Cc1ccc(C(=O)N2CCC(c3ccc(C(=O)NCc4ccn5ccnc5c4)cc3)CC2)s1` [Example 1093, 4-{1-[(5-cyanothiophen-2-yl)carbonyl]piperidin-4-yl}-N-(imidazo[1,2-a]pyridin-7-ylmethyl)benzamide], it took 565 nM to reach half-maximal inhibition (IC50).

The compound `O=C(NCc1ccn2ccnc2c1)c1ccc(-c2cc(C3CC3)nn2Cc2ccccc2)s1` [Example 857, 5-(1-benzyl-3-cyclopropyl-1H-pyrazol-5-yl)-N-(imidazo[1,2-a]pyridin-7-ylmethyl)thiophene-2-carboxamide] returned an IC50 of 1.55 nM.

As to `CCc1nc(C(=O)N2CCC(c3ccc(C(=O)NCc4ccn5ccnc5c4)cc3)CC2)cs1` [Example 1005, 4-{1-[(2-ethyl-1,3-thiazol-4-yl)carbonyl]piperidin-4-yl}-N-(imidazo[1,2-a]pyridin-7-ylmethyl)benzamide], 74.7 nM corresponded to half-maximal inhibition (IC50).

`COc1ncccc1/C=C/C(=O)N1CCC(c2ccc(NC(=O)NCc3ccn4ccnc4c3)cc2)CC1` [Example 1039, 1-(imidazo[1,2-a]pyridin-7-ylmethyl)-3-(4-{1-[(2E)-3-(2-methoxypyridin-3-yl)prop-2-enoyl]piperidin-4-yl}phenyl)urea]: the IC50 stood at 6.87 nM.

Compound `O=C(NCc1ccc2ncnn2c1)c1ccc(C2CCN(C(=O)c3ccccc3F)CC2)s1` [Example 831, 5-[1-(2-fluorobenzoyl)piperidin-4-yl]-N-([1,2,4]triazolo[1,5-a]pyridin-6-ylmethyl)thiophene-2-carboxamide] showed a half-inhibitory concentration (IC50) of 0.886 nM.

The compound `O=C(NCc1ccn2ccnc2c1)c1ccc(C2CCN(C(=O)c3cc4ccccn4n3)CC2)cc1` [Example 1111, N-(imidazo[1,2-a]pyridin-7-ylmethyl)-4-[1-(pyrazolo[1,5-a]pyridin-2-ylcarbonyl)piperidin-4-yl]benzamide] showed an IC50 of 62 nM.

As for `CC(C)CC(=O)N1CCC(c2ccc(C(=O)NCc3cn4ccnc4cn3)s2)CC1` [Example 838, N-(imidazo[1,2-a]pyrazin-6-ylmethyl)-5-[1-(3-methylbutanoyl)piperidin-4-yl]thiophene-2-carboxamide], half-maximal inhibition (IC50) required 2.7 nM.

Turning to `O=C(NCc1ccn2ccnc2c1)Nc1ccc(C2CCN(C(=O)C3COc4ccccc4O3)CC2)cc1` (stereo not drawn) [Example 1023, 1-{4-[1-(2,3-dihydro-1,4-benzodioxin-2-ylcarbonyl)piperidin-4-yl]phenyl}-3-(imidazo[1,2-a]pyridin-7-ylmethyl)urea], the IC50 was 6.87 nM.

In turn, `CC(C)c1ncncc1C(=O)N1CCC(c2ccc(C(=O)NCc3ccn4ccnc4c3)cc2)CC1` [Example 1104, N-(imidazo[1,2-a]pyridin-7-ylmethyl)-4-(1-{[4-(propan-2-yl)pyrimidin-5-yl]carbonyl}piperidin-4-yl)benzamide] displayed a half-maximal inhibitory concentration (IC50) of 6.96 nM.

`COc1ccc(C(=O)N2CCC(c3ccc(NC(=O)NCc4ccn5ccnc5c4)cc3)CC2)c(OC)c1` [Example 944, 1-{4-[1-(2,4-dimethoxybenzoyl)piperidin-4-yl]phenyl}-3-(imidazo[1,2-a]pyridin-7-ylmethyl)urea] returned a concentration for half-maximal inhibition (IC50) of 3.36 nM.

With `CC(C)C(=O)N1CCC(c2ccc(NC(=O)NCc3ccn4c(Cl)cnc4c3)cc2)CC1` [Example 904, 1-[(3-chloroimidazo[1,2-a]pyridin-7-yl)methyl]-3-{4-[1-(2-methylpropanoyl)piperidin-4-yl]phenyl}urea], half-maximal inhibition (IC50) was put at 282 nM.

For the compound `O=C(NCc1ccc2ncnn2c1)c1ccc(C2CCN(C(=O)CC(F)(F)F)CC2)s1` [Example 846, N-([1,2,4]triazolo[1,5-a]pyridin-6-ylmethyl)-5-[1-(3,3,3-trifluoropropanoyl)piperidin-4-yl]thiophene-2-carboxamide], the IC50 came to 74.4 nM.

As to `N#Cc1cc(F)cc(C(=O)N2CCC(c3ccc(NC(=O)NCc4ccn5ccnc5c4)cc3)CC2)c1` [Example 1048, 1-{4-[1-(3-cyano-5-fluorobenzoyl)piperidin-4-yl]phenyl}-3-(imidazo[1,2-a]pyridin-7-ylmethyl)urea], the half-maximal inhibitory concentration (IC50) stood at 8.27 nM.

The compound `O=C(NCc1ccn2ccnc2c1)c1ccc(C2CCN(C(=O)c3cc(Cl)ncc3F)CC2)cc1` [Example 1061, 4-{1-[(2-chloro-5-fluoropyridin-4-yl)carbonyl]piperidin-4-yl}-N-(imidazo[1,2-a]pyridin-7-ylmethyl)benzamide] returned an IC50 of 7.84 nM.

Compound `CC(C)=CC(=O)N1CCC(c2ccc(C(=O)NCc3ccn4ccnc4c3)cc2)CC1` [Example 914, N-(imidazo[1,2-a]pyridin-7-ylmethyl)-4-[1-(3-methylbut-2-enoyl)piperidin-4-yl]benzamide] yielded a half-inhibitory concentration (IC50) of 77.2 nM.

As to `N#Cc1ccc(C(=O)N2CCC(c3ccc(NC(=O)NCc4ccn5ccnc5c4)cc3)CC2)c(Cl)c1` [Example 954, 1-{4-[1-(2-chloro-4-cyanobenzoyl)piperidin-4-yl]phenyl}-3-(imidazo[1,2-a]pyridin-7-ylmethyl)urea], half-maximal inhibition (IC50) required 2.76 nM.

Regarding `O=C(NCc1ccn2ccnc2c1)c1ccc(NC(=O)c2cc(F)cc(F)c2)cc1` [Example 871, 3,5-difluoro-N-{4-[(imidazo[1,2-a]pyridin-7-ylmethyl)carbamoyl]phenyl}benzamide], half-maximal inhibition (IC50) was put at 7300 nM.

Consider `CCc1cc(C(=O)N2CCC(c3ccc(C(=O)NCc4ccn5ccnc5c4)cc3)CC2)on1` [Example 1002, 4-{1-[(3-ethyl-1,2-oxazol-5-yl)carbonyl]piperidin-4-yl}-N-(imidazo[1,2-a]pyridin-7-ylmethyl)benzamide], for which inhibition was half-maximal at 154 nM (IC50).

With `Cc1cc(C(=O)N2CCC(c3ccc(NC(=O)NCc4ccn5ccnc5c4)cc3)CC2)n(C(C)(C)C)n1` [Example 1029, 1-(4-{1-[(1-tert-butyl-3-methyl-1H-pyrazol-5-yl)carbonyl]piperidin-4-yl}phenyl)-3-(imidazo[1,2-a]pyridin-7-ylmethyl)urea], 0.272 nM corresponded to half-maximal inhibition (IC50).

Compound `COc1cccc(C)c1C(=O)N1CCC(c2ccc(C(=O)NCc3ccn4ccnc4c3)cc2)CC1` [Example 1009, N-(imidazo[1,2-a]pyridin-7-ylmethyl)-4-[1-(2-methoxy-6-methylbenzoyl)piperidin-4-yl]benzamide] came in with a concentration for half-maximal inhibition (IC50) of 1.2 nM.
